Converted amounts (≈) assume the structure as drawn.
Tests used:
Test in all cases: ≥ marks a high value that may be exact or a test limit, other limits are often not marked, values filed in µg/mL are converted to µM
[1] = test system: Bacillus megaterium ATCC 9885
Candida albicans = test system: Candida albicans
[2] = test system: Enterobacter cloacae ATCC 11775
[3] = test system: Escherichia coli 363 ATCC 11775
Klebsiella pneumoniae = test system: Klebsiella pneumoniae
Neisseria meningitidis = test system: Neisseria meningitidis
Pseudomonas aeruginosa = test system: Pseudomonas aeruginosa
Saccharomyces cerevisiae = test system: Saccharomyces cerevisiae
[4] = test system: Salmonella enterica subsp. enterica serovar Enteritidis
Salmonella typhimurium = test system: Salmonella typhimurium
[5] = test system: Staphylococcus aureus ATCC 25923
[6] = test system: Staphylococcus haemolyticus
Vibrio cholerae = test system: Vibrio cholerae
[7] = test system: Bacillus subtilis ATCC 9372
[8] = test system: Escherichia coli ATCC 8739
[9] = test system: Proteus vulgaris NCTC 4635
[10] = test system: Pseudomonas aeruginosa ATCC 9027
[11] = test system: Staphylococcus aureus ATCC 6538
Acinetobacter baumannii = test system: Acinetobacter baumannii
[12] = test system: Candida albicans ATCC 90028
[13] = test system: Escherichia coli ATCC 25726
[14] = test system: Klebsiella pneumoniae ATCC 700603
[15] = test system: Proteus mirabilis ATCC 25933
[16] = test system: Pseudomonas aeruginosa ATCC 27853
[17] = test system: Staphylococcus aureus ATCC 29213
[18] = test system: Staphylococcus epidermidis RP62A/1
[19] = test system: Staphylococcus epidermidis RP62A
[20] = test system: Stenotrophomonas maltophilia
[21] = test system: Staphylococcus aureus CIP 53.156
Staphylococcus aureus = test system: Staphylococcus aureus
[22] = test system: Staphylococcus xylosus ATCC 35033
Staphylococcus xylosus = test system: Staphylococcus xylosus
[23] = test system: Acetobacterium wieringae CGMCC 1.2033
[24] = test system: Alcaligenes faecalis CGMCC 1.924
[25] = test system: Aspergillus flavus CGMCC 3.6433
[26] = test system: Bacillus cereus CMCC 1.126
[27] = test system: Bacillus subtilis CGMCC 1.88
[28] = test system: Bacillus thuringiensis serovar israelensis H14
[29] = test system: Beauveria bassiana CGMCC 3.3576
[30] = test system: Candida albicans CMCC 98001
[31] = test system: Corynebacterium glutamicum CGMCC 1.818
[32] = test system: Enterobacter cloacae CGMCC 1.58
[33] = test system: Enterococcus faecalis CGMCC 1.100
[34] = test system: Escherichia coli CGMCC 1.1369
[35] = test system: Klebsiella aerogenes CGMCC 1.2021
[36] = test system: Micrococcus luteus AB206228
[37] = test system: Penicillium sp. ATCC 30106
[38] = test system: Proteus vulgaris CGMCC 1.1651
[39] = test system: Providencia rettgeri CMCC 49256
[40] = test system: Pseudomonas aeruginosa CMCC 10104
[41] = test system: Saccharomyces cerevisiae CGMCC 2.1619
[42] = test system: Salmonella typhimurium CGMCC 1.1174
[43] = test system: Tetragenococcus halophilus CGMCC 1.2492

## CC(C)C[C@H](NC(=O)[C@H](CC(C)C)NC(=O)[C@H](CCCCN)NC(=O)CNC(=O)[C@H](C)NC(=O)[C@@H](NC(=O)[C@H](CCCCN)NC(=O)[C@H](CC(C)C)NC(=O)[C@H](CC(C)C)NC(=O)[C@H](CC(=O)O)NC(=O)[C@@H](NC(=O)[C@@H](NC(=O)[C@@H](NC(=O)CN)C(C)C)C(C)C)[C@@H](C)O)[C@@H](C)O)C(=O)NCC(=O)N[C@@H](CC(N)=O)C(=O)N[C@@H](CC(C)C)C(=O)N[C@H](C(=O)NCC(=O)N[C@@H](CO)C(=O)N[C@@H](CC(C)C)C(=O)N[C@@H](CO)C(=O)NCC(N)=O)C(C)C [GVVTDLLKTAGKLLGNLVGSLSG]
[1]
  MIC: 12.5 µM (≈ 27.6 µg/mL)
Candida albicans
  MIC: 150 µM (≈ 332 µg/mL)
[2]
  MIC: ≥ 100 µM
[3]
  MIC: 12.5 µM (≈ 27.6 µg/mL)
Klebsiella pneumoniae
  MIC: 100 µM (≈ 221 µg/mL)
Neisseria meningitidis
  MIC: ≥ 100 µM
Pseudomonas aeruginosa
  MIC: 100 µM (≈ 221 µg/mL)
Saccharomyces cerevisiae
  MIC: ≥ 300 µM
[4]
  MIC: 25 µM (≈ 55.3 µg/mL)
Salmonella typhimurium
  MIC: ≥ 50 µM
[5]
  MIC: 50.5 µM (≈ 112 µg/mL)
[6]
  MIC: ≥ 100 µM
Vibrio cholerae
  MIC: 25 µM (≈ 55.3 µg/mL)

## CC[C@H](C)[C@H](N)C(=O)N[C@@H](CCCCN)C(=O)N[C@@H](CCCCN)C(=O)N[C@H](C(=O)N[C@@H](C)C(=O)N[C@@H](CO)C(=O)N[C@H](C(=O)O)C(C)C)C(C)C [IKKVASV]
[7]
  MIC: ≥ 1380 µM
[8]
  MIC: ≥ 1380 µM
[9]
  MIC: ≥ 1380 µM
[10]
  MIC: 1380 µM (≈ 1020 µg/mL)
[11]
  MIC: > 1380 µM

## CC[C@H](C)[C@H](N)C(=O)N[C@@H](CCCCN)C(=O)N[C@@H](CC(C)C)C(=O)N[C@@H](CO)C(=O)N1CCC[C@H]1C(=O)N[C@@H](CCC(=O)O)C(=O)N[C@H](C(=O)N[C@@H](CCCCN)C(=O)N[C@@H](CC(=O)O)C(=O)N[C@@H](CC(N)=O)C(=O)N[C@@H](CC(C)C)C(=O)N[C@@H](CCCCN)C(=O)N[C@@H](CCCCN)C(=O)N[C@H](C(=O)N[C@@H](CC(C)C)C(=O)N[C@@H](CCCCN)C(=O)NCC(=O)N[C@@H](C)C(=O)N[C@H](C(=O)N[C@@H](CCCCN)C(=O)NCC(=O)N[C@@H](C)C(=O)N[C@H](C(=O)N[C@@H](C)C(=O)N[C@H](C(=O)N[C@@H](C)C(=O)N[C@@H](CCCCN)C(=O)N[C@@H](CCSC)C(=O)N[C@H](C(N)=O)C(C)C)C(C)C)[C@@H](C)CC)[C@@H](C)CC)C(C)C)[C@@H](C)O [IKLSPETKDNLKKVLKGAIKGAIAVAKMV]
Acinetobacter baumannii
  MIC: 6.25 µM (≈ 19.1 µg/mL)
[12]
  MIC: ≥ 80 µM
[13]
  MIC: 20 µM (≈ 61.3 µg/mL)
[14]
  MIC: 20 µM (≈ 61.3 µg/mL)
Klebsiella pneumoniae
  MIC: 25 µM (≈ 76.6 µg/mL)
[15]
  MIC: ≥ 100 µM
[16]
  MIC: 40 µM (≈ 123 µg/mL)
[5]
  MIC: 10 µM (≈ 30.6 µg/mL)
[17]
  MIC: 12.5 µM (≈ 38.3 µg/mL)
[18]
  MIC: 1.6 µM (≈ 4.9 µg/mL)
[19]
  MIC: 3.1 µM (≈ 9.5 µg/mL)
[20]
  MIC: 6.25 µM (≈ 19.1 µg/mL)

## CC[C@H](C)[C@H](NC(=O)[C@@H](N)CCCCN)C(=O)N[C@@H](CCCCN)C(=O)N[C@H](C(=O)N1CCC[C@H]1C(=O)N[C@@H](Cc1c[nH]c2ccccc12)C(=O)NCC(=O)N[C@@H](CCCCN)C(=O)N[C@H](C(=O)N[C@@H](CCCCN)C(=O)N[C@@H](CC(=O)O)C(=O)N[C@@H](Cc1ccccc1)C(=O)N[C@@H](CC(C)C)C(=O)N[C@H](C(=O)NCC(=O)NCC(=O)N[C@@H](CCSC)C(=O)N[C@@H](CCCCN)C(=O)N[C@@H](C)C(=O)N[C@H](C(=O)O)C(C)C)C(C)C)C(C)C)[C@@H](C)CC [KIKIPWGKVKDFLVGGMKAV]
[21]
  MIC: ≥ 57 µM
Staphylococcus aureus
  MIC: 15.4 µM (≈ 34 µg/mL)
[22]
  MIC: 2.08 µM (≈ 4.6 µg/mL)
Staphylococcus xylosus
  MIC: 1.35 µM (≈ 3 µg/mL)

## CC[C@H](C)[C@H](NC(=O)[C@H](Cc1ccccc1)NC(=O)[C@H](CCCCN)NC(=O)[C@H](C)NC(=O)[C@@H](NC(=O)[C@H](CO)NC(=O)[C@H](CCCCN)NC(=O)[C@H](CCSC)NC(=O)[C@H](C)NC(=O)[C@H](CCCCN)NC(=O)[C@H](Cc1ccccc1)NC(=O)[C@H](Cc1c[nH]c2ccccc12)NC(=O)CNC(=O)[C@H](CCCCN)NC(=O)[C@@H](N)CCCN=C(N)N)[C@@H](C)CC)C(=O)N[C@@H](C)C(=O)N[C@@H](CCCCN)C(=O)N[C@@H](CCC(=O)O)C(=O)N[C@@H](CCCCN)C(=O)N[C@@H](CC(C)C)C(=O)N[C@@H](CCCCN)C(=O)N[C@@H](CCC(=O)O)C(=O)N[C@@H](Cc1cnc[nH]1)C(=O)N[C@@H](CC(C)C)C(=O)O [RKGWFKAMKSIAKFIAKEKLKEHL]
[23]
  MIC: 3.1 µM (≈ 8.95 µg/mL)
[24]
  MIC: 3.1 µM (≈ 8.95 µg/mL)
[25]
  MIC: 3.1 µM (≈ 8.95 µg/mL)
[26]
  MIC: 6.2 µM (≈ 17.9 µg/mL)
[27]
  MIC: 12.5 µM (≈ 36.1 µg/mL)
[28]
  MIC: 12.5 µM (≈ 36.1 µg/mL)
[29]
  MIC: 6.2 µM (≈ 17.9 µg/mL)
[30]
  MIC: ≥ 50 µM
[31]
  MIC: 3.1 µM (≈ 8.95 µg/mL)
[32]
  MIC: ≥ 50 µM
[33]
  MIC: 25 µM (≈ 72.2 µg/mL)
[34]
  MIC: 25 µM (≈ 72.2 µg/mL)
[35]
  MIC: 12.5 µM (≈ 36.1 µg/mL)
[36]
  MIC: 3.1 µM (≈ 8.95 µg/mL)
[37]
  MIC: 3.1 µM (≈ 8.95 µg/mL)
[38]
  MIC: 6.2 µM (≈ 17.9 µg/mL)
[39]
  MIC: 6.2 µM (≈ 17.9 µg/mL)
[40]
  MIC: 6.2 µM (≈ 17.9 µg/mL)
[41]
  MIC: ≥ 50 µM
[42]
  MIC: 12.5 µM (≈ 36.1 µg/mL)
[43]
  MIC: 3.1 µM (≈ 8.95 µg/mL)

— DBAASP
